Experiment [1] deals with IL-12/IL-23 and Type I IFN pathways. Particulars: Tokarski et al. 2015; cited from earlier work.
Experiment [2] relates to experimental autoimmune disease models (psoriasis, SLE, and IBD). The settings on record: cited from earlier work.
The next experiment concerns the target T1, Tyk2 JH2 Pseudokinase (Homo sapiens, UniProt P29597).
T1 construct: purchased Eurofins DiscoverX Corporation (CRO); host or cells: E. coli BL21-derived (T7 phage) or HEK-293
Nature of the experiment: KdELECT Competition Binding Assay. Particulars: 11-point 3-fold dilution series, qPCR readout. The method, then:
The KdELECT Competition Binding Assay is performed by a CRO, Eurofins DiscoverX Corporation following the established standard protocol (DiscoverX, San Diego, Calif.). Briefly, Kinase-tagged T7 phage strains were prepared in an E. coli host derived from the BL21 strain. E. coli were grown to log-phase and infected with T7 phage and incubated with shaking at 32° C. until lysis. The lysates were centrifuged and filtered to remove cell debris. The remaining kinases were produced in HEK-293 cells and subsequently tagged with DNA for qPCR detection. Streptavidin-coated magnetic beads were treated with biotinylated small molecule ligands for 30 minutes at room temperature to generate affinity resins for kinase assays. The liganded beads were blocked with excess biotin and washed with blocking buffer (SeaBlock (Pierce), 1% BSA, 0.05% Tween 20, 1 mM DTT) to remove unbound ligand and to reduce nonspecific binding. Binding reactions were assembled by combining kinases, liganded affinity beads, and test compounds in 1× binding buffer (20% SeaBlock, 0.17×PBS, 0.05% Tween 20, 6 mM DTT). Test compounds were prepared as 111-fold stocks in 100% DMSO. Kds were determined using an 11-point 3-fold compound dilution series with three DMSO control points. All compounds for Kd measurements are distributed by acoustic transfer (non-contact dispensing) in 100% DMSO. The compounds were then diluted directly into the assays such that the final concentration of DMSO was 0.9%. All reactions performed in polypropylene 384-well plate. Each was a final volume of 0.02 mL. The assay plates were incubated at room temperature with shaking for 1 hour and the affinity beads were washed with wash buffer (1×PBS, 0.05% Tween 20). The beads were then re-suspended in elution buffer (1×PBS, 0.05% Tween 20, 0.5 μM non-biotinylated affinity ligand) and incubated at room temperature with shaking for 30 minutes. The kinase concentration in the eluates was measured by quantitative PCR.
Compound Handling: An 11-point 3-fold serial dilution of each test compound was prepared in 100% DMSO at 100-fold final test concentration and subsequently diluted to 1-fold in the assay (final DMSO concentration=1%). Most Kds were determined using a compound top concentration=30,000 nM. If the initial Kd determined was <0.5 nM (the lowest concentration tested), the measurement was repeated with a serial dilution starting at a lower top concentration.

Experiment [3] deals with Tyk2-mediated, IL23-induced STAT3 phosphorylation in human Kit225 T cell line. Nature of the experiment: IL-23_Kit225 T Cell Assay (phosphorylated-STAT3, AlphaLISA). It is filed as cell-based. Particulars: Kit225 cells, compound 1 hour, human recombinant IL-23 20 minutes, pSTAT3. As to the method: (§1) Kit225 cells (licensed from Professor Toshiyuki Hori, Ritsumeikan University, Japan) were seeded in 384-well plate at a density of 1×10^5 cells/well in 4 μL Hank's Balanced Salt Solution (HBSS, Gibco), and incubated for 2 hours in a humidified, 5% CO2 cell culture incubator at 37° C. The cells were treated with serial diluted compounds for 1 hour and stimulated with human recombinant IL-23 (R&D Systems) for 20 minutes. The treated cells were then lysed and cellular phosphorylated-STAT3 levels were measured by AlphaLISA (PerkinElmer) according to the manufacture's instructions. Inhibition data were calculated by comparison to vehicle control wells for 0% inhibition and non-stimulated control wells for 100% inhibition. Dose response curves were then generated to determine the concentration required to suppress 50% of cellular response (IC50) as derived by non-linear regression analysis using GraphPad Prism.
On the technique in general: Alpha assays give light when donor and acceptor beads are brought close together.

The subject of experiment [4] is Tyk2-mediated, IFNα-induced STAT1 phosphorylation in human Kit225 T cell line. Nature of the experiment: IFNα_Kit225 T Cell Assay (phosphorylated-STAT1, AlphaLISA). Particulars: Kit225 cells, compound 1 hour, human recombinant IFNα 20 minutes, pSTAT1; read-out: IFN-α Kit225 (IC50). It is filed as cell-based. As to the method:
as §1, with “cells” for “cells (licensed from Professor Toshiyuki Hori, Ritsumeikan University, Japan)”, “0.5×10^5” for “1×10^5”, “HBSS,” for “Hank's Balanced Salt Solution (HBSS, Gibco),”, “IFNα (Biolegend)” for “IL-23 (R&D Systems)”, “phosphorylated-STAT1” for “phosphorylated-STAT3”, “manufacturer's” for “manufacture's”

One may read the Kd as the equilibrium constant for the complex coming apart. High values mean weaker binding, low ones tighter binding. As usually defined, the IC50 is the concentration that inhibits the measured activity by half.

T1 sequence (P29597 589-875 limits assumed): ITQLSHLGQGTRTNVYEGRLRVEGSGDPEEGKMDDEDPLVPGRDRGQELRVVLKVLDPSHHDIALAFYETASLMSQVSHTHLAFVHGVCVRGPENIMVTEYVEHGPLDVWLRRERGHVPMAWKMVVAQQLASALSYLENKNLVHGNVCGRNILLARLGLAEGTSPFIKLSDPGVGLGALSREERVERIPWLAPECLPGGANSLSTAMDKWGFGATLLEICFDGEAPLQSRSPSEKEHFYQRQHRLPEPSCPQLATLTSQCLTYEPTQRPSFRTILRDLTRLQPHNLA

On to BMS986165, for which the “block of IL-12/IL-23 and Type I IFN pathways” value in experiment [1] is recorded as “effectively block”. Moreover, in experiment [2], the “in vivo efficacy in experimental autoimmune disease models” value was “substantial in vivo efficacy”.
On Tyk2 JH2 Pseudokinase, `[2H]C([2H])([2H])NC(=O)c1nnc(NC(=O)C2CC2)cc1Nc1cc(N2CCC2=O)cc(-c2ncn(C)n2)c1OC` [Example A3, 6-(cyclopropanecarboxamido)-4-((2-methoxy-3-(1-methyl-1H-1,2,4-triazol-3-yl)-5-(2-oxoazetidin-1-yl)phenyl)amino)-N-(methyl-d3)pyridazine-3-carboxamide] showed a dissociation constant (Kd) of 0.0071 nM. In addition, the concentration for half-maximal inhibition (IC50) was 9.7 nM in experiment [3] and 7.5 nM in experiment [4].
The matching figures for `[2H]C([2H])([2H])NC(=O)c1nnc(NC(=O)C2CC2)cc1Nc1cc(N2CC(OC)C2)cc(-c2ncn(C)n2)c1OC` [Example A1, 6-(cyclopropanecarboxamido)-4-((2-methoxy-5-(3-methoxyazetidin-1-yl)-3-(1-methyl-1H-1,2,4-triazol-3-yl)phenyl)amino)-N-(methyl-d3)pyridazine-3-carboxamide]: 0.0035 nM, 57 nM and 43 nM.
Taken in the same sequence, the figures for `[2H]C([2H])([2H])NC(=O)c1nnc(NC(=O)C2CC2)cc1Nc1cc(OC2COC2)cc(-c2ncn(C)n2)c1OC` [Example A4, 6-(cyclopropanecarboxamido)-4-((2-methoxy-3-(1-methyl-1H-1,2,4-triazol-3-yl)-5-(oxetan-3-yloxy)phenyl)amino)-N-(methyl-d3)pyridazine-3-carboxamide] were 0.037 nM, 130 nM and 410 nM.
Taken in the same sequence, the figures for `CNC(=O)c1nnc(NC(=O)C2CC2)cc1Nc1cc(N2CC(OC)C2)cc(-c2ncn(C)n2)c1OC` [Example A2, 6-(cyclopropanecarboxamido)-4-((2-methoxy-5-(3-methoxyazetidin-1-yl)-3-(1-methyl-1H-1,2,4-triazol-3-yl)phenyl)amino)-N-methylpyridazine-3-carboxamide] were 0.004 nM, 88 nM and 50 nM.
